Among the test systems are EKVX NSCLC; HCT-116 colon; HL-60(TB) leukemia; IGROV1 ovarian; KM12 colon; MALME-3M melanoma; RXF 393 renal; SF-295 CNS; SK-OV-3 ovarian; SNB-75 CNS.
Holding throughout (experiment): inhibition of tumour cell growth, NCI panel, 48 h

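The compound was tested at five concentrations on cells cultured in 96-well plates, with a 48-hour exposure period. GI50 = concentration required for 50% inhibition of growth. TGI: concentration producing complete growth inhibition.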 Some results are limits rather than exact numbers.

In the case of `COCCn1cc(-c2nc(-c3cc4cccnc4[nH]3)cs2)c2cc(OC)ccc21`, the GI50 in the assay on EKVX NSCLC is 0.0827 µM; in the assay with HCT-116 colon, 3.49 µM; in the assay on HL-60(TB) leukemia, 2.95 µM; with IGROV1 ovarian, 0.81 µM; in the assay on KM12 colon, 203 nM; in the assay with MALME-3M melanoma it was 7.99 µM. The GI50 is 0.95 µM in the assay with RXF 393 renal, 2.24 µM with SF-295 CNS, 3.04 µM with SK-OV-3 ovarian and 1.22 µM with SNB-75 CNS. For the same compound, the TGI was 4.43 µM in the assay on EKVX NSCLC; 16 µM in the assay on HCT-116 colon; 13.3 µM in the assay with HL-60(TB) leukemia; more than 34.5 µM in the assay with IGROV1 ovarian; 9.38 µM in the assay on KM12 colon; more than 80.6 µM with MALME-3M melanoma. Also, the TGI stood at 5.41 µM in the assay with RXF 393 renal, 6.54 µM with SF-295 CNS, 11.6 µM in the assay on SK-OV-3 ovarian and 5.83 µM in the assay with SNB-75 CNS.

Turning to `c1ccc(Nc2ncc(-c3ccccc3)o2)cc1`, the GI50 was more than 25 µM in the assay with EKVX NSCLC; 24.5 µM in the assay with HCT-116 colon; 24 µM with HL-60(TB) leukemia; more than 22 µM in the assay with IGROV1 ovarian; 10700 nM with KM12 colon; more than 25 µM with MALME-3M melanoma. For the same compound, the GI50 with RXF 393 renal is more than 19.7 µM; in the assay with SF-295 CNS it was more than 25 µM; in the assay with SK-OV-3 ovarian, more than 25 µM; with SNB-75 CNS, more than 24.1 µM. The TGI in the assay on EKVX NSCLC, with HCT-116 colon, in the assay with HL-60(TB) leukemia, in the assay with IGROV1 ovarian, in the assay with KM12 colon and in the assay on MALME-3M melanoma was more than 25 µM each time. The TGI with RXF 393 renal, with SF-295 CNS, in the assay with SK-OV-3 ovarian and in the assay on SNB-75 CNS was more than 25 µM throughout.

Take `COCCOCOC(CCCCO)c1cc(C)c(O[Si](C)(C)C(C)(C)C)c(C)c1` (stereo not drawn): the TGI with EKVX NSCLC is 22.6 µM; in the assay with HL-60(TB) leukemia it was 6.02 µM; in the assay with IGROV1 ovarian it was 26.7 µM; in the assay on KM12 colon, 18.6 µM; in the assay on MALME-3M melanoma it was 13.3 µM; in the assay with RXF 393 renal, 10.5 µM. For the same compound, the TGI in the assay with SF-295 CNS was determined as 16.3 µM; with SK-OV-3 ovarian, 31.8 µM; with SNB-75 CNS it was 23.9 µM.

For `CN(C)C=Nc1nc(=O)n(C2CCC(CO)O2)cc1F` (stereo not drawn), the TGI in the assay with EKVX NSCLC, with HL-60(TB) leukemia, with KM12 colon, with MALME-3M melanoma, with RXF 393 renal and in the assay with SF-295 CNS was more than 100 µM throughout. Further, the TGI in the assay with SK-OV-3 ovarian and in the assay on SNB-75 CNS was more than 100 µM each time.

Regarding `COc1ccc(/C=C/COC(C)=O)cc1OC`, the TGI in the assay on EKVX NSCLC, in the assay on IGROV1 ovarian, in the assay with KM12 colon, in the assay on MALME-3M melanoma, in the assay with RXF 393 renal and with SF-295 CNS was more than 100 µM in each case. The TGI in the assay on SK-OV-3 ovarian and in the assay with SNB-75 CNS was more than 100 µM in each case.

`COC(=O)c1cc2oc(/C=C3/SC(=S)N(NC(C)=O)C3=O)cc2n1C`: the GI50 with EKVX NSCLC was 11.3 µM; in the assay on HCT-116 colon it was 12.1 µM; with HL-60(TB) leukemia it was 38.3 µM; in the assay with IGROV1 ovarian, 23.3 µM; in the assay with KM12 colon it was 26400 nM; in the assay with MALME-3M melanoma, 10.8 µM. Also, the GI50 is 36.5 µM with RXF 393 renal, 18.2 µM with SF-295 CNS and 34.7 µM in the assay with SNB-75 CNS. Further, the TGI with EKVX NSCLC is 40.5 µM; in the assay with HCT-116 colon it was 31.1 µM; in the assay with HL-60(TB) leukemia it was more than 100 µM; in the assay on IGROV1 ovarian it was more than 100 µM; in the assay on KM12 colon, more than 100 µM; in the assay on MALME-3M melanoma, 52 µM. Moreover, the TGI was 87.7 µM with RXF 393 renal, 65.5 µM with SF-295 CNS and more than 100 µM with SNB-75 CNS.

Turning to `Cn1cc(-c2cc3c(N4CCN(c5ncc([C@@](C)(N)c6ccc(F)cc6)cn5)CC4)ncnn3c2)cn1`, the GI50 is 4.14 µM in the assay with EKVX NSCLC; 3.15 µM with HCT-116 colon; 3.8 µM in the assay with HL-60(TB) leukemia; 2.7 µM with IGROV1 ovarian; 3490 nM in the assay on KM12 colon; 4.16 µM with MALME-3M melanoma. The GI50 was 2.66 µM with RXF 393 renal, 3.56 µM in the assay with SF-295 CNS and 1.39 µM with SNB-75 CNS. Further, the TGI with EKVX NSCLC, in the assay on HCT-116 colon, in the assay with HL-60(TB) leukemia, in the assay with IGROV1 ovarian, in the assay with KM12 colon and in the assay on MALME-3M melanoma was more than 100 µM each time. Besides, the TGI with RXF 393 renal, in the assay on SF-295 CNS and in the assay on SNB-75 CNS was more than 100 µM each time.

For `N#CC(C(=O)CCC(=O)Nc1ccc(Cl)c(Cl)c1)c1ccccc1` (stereo not drawn), the TGI in the assay on EKVX NSCLC, in the assay on HCT-116 colon, in the assay with HL-60(TB) leukemia, in the assay on IGROV1 ovarian, in the assay on KM12 colon and in the assay on MALME-3M melanoma was more than 100 µM each time. The TGI with RXF 393 renal, in the assay on SF-295 CNS and in the assay with SNB-75 CNS was more than 100 µM each time.

As for `CCC(C)SC1SCC2C(=O)N(C)C3(CC3C)C(=O)OCC(NC(=O)c3nc4ccccc4cc3O)C(=O)NC(C)C(=O)N(C)C1C(=O)N(C)C1(CC1C)C(=O)OCC(NC(=O)c1nc3ccccc3cc1O)C(=O)NC(C)C(=O)N2C` (stereo not drawn), the TGI in the assay with EKVX NSCLC is 0.00538 µM; with HL-60(TB) leukemia it was 0.00488 µM; in the assay on IGROV1 ovarian, 3.54 µM; in the assay with KM12 colon, 0.000397 µM; with MALME-3M melanoma it was 0.000422 µM; in the assay on RXF 393 renal, 0.000154 µM. Further, the TGI in the assay on SF-295 CNS was 0.00153 µM; in the assay with SNB-75 CNS it was 8.3e-05 µM. The GI50 was 2.88e-05 µM with HCT-116 colon and 0.0524 nM in the assay with KM12 colon.

As for `CN1CCN(c2ccc(Nc3ncc(Cl)c(NC[C@@H]4CCCO4)n3)cc2)CC1`, the GI50 is 1.69 µM in the assay with EKVX NSCLC; 1.48 µM in the assay on HL-60(TB) leukemia; 1.56 µM in the assay with IGROV1 ovarian; 362 nM with KM12 colon; 1.49 µM with MALME-3M melanoma; 0.746 µM in the assay on RXF 393 renal. For the same compound, the figures for the GI50 in the assay on SF-295 CNS, in the assay with SK-OV-3 ovarian and in the assay with SNB-75 CNS were 1.26 µM, 2.63 µM and 1.14 µM, respectively. For the same compound, the TGI with EKVX NSCLC is 5.74 µM; in the assay with HL-60(TB) leukemia, 4.76 µM; with IGROV1 ovarian it was more than 100 µM; in the assay with KM12 colon, 11.7 µM; with MALME-3M melanoma it was 8.06 µM; in the assay on RXF 393 renal it was 3.42 µM. Further, the values for the TGI with SF-295 CNS, with SK-OV-3 ovarian and with SNB-75 CNS were 26.3 µM, 63.8 µM and 4.72 µM, respectively.
